± gives the expanded uncertainty stated by the source.
Assays:
[1] = 101 kPa, Liquid; for viscosity: Capillary tube (Ostwald / Ubbelohde) method
[2] = refractive index (Na D-line) (dimensionless); details: 101.33 kPa, Liquid, Standard Abbe refractometry
[3] = xn = mol fraction of the nth substance listed; details: 101 kPa, Liquid, x2 = 0; for viscosity: Capillary tube (Ostwald / Ubbelohde) method
[4] = refractive index (Na D-line) (dimensionless); xn = mol fraction of the nth substance listed; details: 101 kPa, Liquid, Standard Abbe refractometry, x2 = 0
[5] = 283.15 K, Vibrating tube method
[6] = 323.15 K, Vibrating tube method

SMILES | viscosity ([1]; 283.15 K) [mPa·s] | viscosity ([1]; 293.15 K) [mPa·s] | viscosity ([1]; 303.15 K) [mPa·s] | viscosity ([1]; 313.15 K) [mPa·s] | viscosity ([1]; 323.15 K) [mPa·s] | refractive index ([2]; 283.15 K) | refractive index ([2]; 293.15 K) | refractive index ([2]; 303.15 K) | refractive index ([2]; 313.15 K) | refractive index ([2]; 323.15 K) | viscosity ([3]; 283.15 K) [mPa·s] | mass density ([3]; 283.15 K) [kg/m3] | viscosity ([3]; 293.15 K) [mPa·s] | viscosity ([3]; 303.15 K) [mPa·s] | viscosity ([3]; 313.15 K) [mPa·s] | viscosity ([3]; 323.15 K) [mPa·s] | refractive index ([4]; 283.15 K) | refractive index ([4]; 293.15 K) | refractive index ([4]; 303.15 K) | refractive index ([4]; 313.15 K) | other results
CCCCOCCOCCO [3,6-dioxa-1-decanol] | 8.301 ± 0.092 | 5.86 ± 0.069 | 4.323 ± 0.049 | 3.295 ± 0.036 | 2.58 ± 0.029 | 1.4347 ± 0.00057 | 1.4312 ± 0.00056 | 1.42805 ± 0.00057 | 1.424 ± 0.00062 | 1.4194 ± 0.00064 |  |  |  |  |  |  |  |  |  |  | mass density [1, 5]: 962.57 ± 0.23 kg/m3; mass density ([1]; 293.15 K, Vibrating tube method): 954.16 ± 0.23 kg/m3; mass density ([1]; 303.15 K, Vibrating tube method): 945.74 ± 0.23 kg/m3; mass density ([1]; 313.15 K, Vibrating tube method): 937.35 ± 0.23 kg/m3; mass density [1, 6]: 928.85 ± 0.23 kg/m3
O [water] + CCCCOCCO |  |  |  |  |  |  |  |  |  |  | 1.309 ± 0.013 | 999.7 ± 0.12 | 1.003 ± 0.01 | 0.7983 ± 0.0078 | 0.6543 ± 0.0064 | 0.5492 ± 0.0054 | 1.33369 ± 0.00041 | 1.33299 ± 0.00041 | 1.33194 ± 0.00042 | 1.33061 ± 0.00043 | mass density ([3]; 323.15 K): 988.04 ± 0.14 kg/m3; refractive index ([4]; 323.15 K): 1.32904 ± 0.00043
CCCCOCCO [2-butoxyethan-1-ol] | 4.46 ± 0.049 | 3.288 ± 0.037 | 2.499 ± 0.028 | 1.946 ± 0.021 | 1.543 ± 0.017 | 1.4226 ± 0.00054 | 1.4196 ± 0.00056 | 1.4157 ± 0.00061 | 1.41139 ± 0.00062 | 1.40701 ± 0.00063 |  |  |  |  |  |  |  |  |  |  | mass density ([1]; 283.15 K): 909.49 ± 0.43 kg/m3; mass density ([1]; 293.15 K): 901.18 ± 0.44 kg/m3; mass density ([1]; 303.15 K): 892.68 ± 0.45 kg/m3; mass density ([1]; 313.15 K): 884.21 ± 0.46 kg/m3; mass density ([1]; 323.15 K): 875.6 ± 0.47 kg/m3
CCCCCCOCCOCCO [2-(2-hexyloxyethoxy)ethanol] |  |  |  |  |  |  |  |  |  |  |  |  |  |  |  |  |  |  |  |  | mass density ([1]; 283.15 K): 942.09 ± 0.26 kg/m3; mass density ([1]; 288.15 K): 938.05 ± 0.26 kg/m3; mass density ([1]; 293.15 K): 934.06 ± 0.27 kg/m3; mass density ([1]; 303.15 K): 926.08 ± 0.28 kg/m3; mass density ([1]; 313.15 K): 918.17 ± 0.29 kg/m3
O [water] + CCCCOCCOCCO |  |  |  |  |  |  |  |  |  |  | 1.309 ± 0.013 |  | 1.003 ± 0.01 | 0.7983 ± 0.0078 | 0.6543 ± 0.0064 | 0.5492 ± 0.0054 | 1.33369 ± 0.00041 | 1.33299 ± 0.00041 | 1.33194 ± 0.00042 | 1.33061 ± 0.00043 | mass density [3, 5]: 999.7 ± 0.05 kg/m3; mass density [3, 6]: 988.04 ± 0.05 kg/m3; refractive index ([4]; 323.15 K): 1.32904 ± 0.00043
O [water] + CCCCCCOCCOCCO |  |  |  |  |  |  |  |  |  |  |  | 999.7 ± 0.12 |  |  |  |  |  |  |  |  | 
